Source: article PMC8875489, “Pharmaceutical and Safety Profile Evaluation of Novel Selenocompounds with Noteworthy Anticancer Activity” (Pharmaceutics, 2022)
Where two headings read alike, the source gives them in different places.

Tests used:
[1] = set-up: method as in PMID 28245633; settings: known selenocompounds; cited from earlier work
[2] = test system: Salmonella Typhimurium TA100 strain; settings: for Fold Increase over Baseline / MI (mutagenic index) / B (binomial B value): TA100; for Fold Increase over Baseline: alert ≥ 2.0; for MI (mutagenic index): mutagenic if MI ≥ 2; for B (binomial B value): threshold ≥ 0.99
Description: Safety profiles were evaluated using an in vitro microbiological method adapted to the microplate Ames test (384-well microtitration plate), which applies Salmonella enterica serovar Typhimurium bacterial strains (the gold standard in mutagenicity research). The experiment was performed according to a previously described protocol, which is provided in the Supplementary Materials. Briefly, the TA 100 strain (deprived of the ability to synthesize the histidine) was incubated with each tested compound in an exposure medium containing a limited amount of histidine. The reversion events were counted both manually and by means of a microplate reader. Each fold increase bigger than two times the baseline level (≥2.0-fold) was considered to indicate a mutagen alert. The experiments and data analyses were prepared according to the procedure that was previously described by Flückiger-Isler et al.. The assay was performed in triplicate. The positive control selected for the mutagenicity assays was NQNO, which causes genome point mutations; specifically, it promotes G:C → A:T transitions in the Salmonella Typhimurium TA-100 strain and other bacteria such as Vibrio harveyi and Escherichia coli.
In the next step of the studies, the in vitro safety profiles of the tested selenocompounds were evaluated. All compounds were tested with the 384-well plate microfluctuation Ames test. The mutagenic index (MI) was used as the measure of mutagenicity.
1.5. Safety profile evaluation - Ames microplate mutagenicity assay
Safety profile was evaluated by the means of in vitro microbiological methods – adapted to microplate Ames test, which applies Salmonella enterica serovar Typhimurium bacterial strains (the gold standard in mutagenicity research).
1.5.1. Compounds preparation
To evaluate the impact of tested compounds and of references on Salmonella enterica serovar Typhimurium (onwards Salmonella Typhimurium) TA-100 strain growth by means of the Ames test, the compounds or the reference were dissolved in the pure DMSO, to obtain the corresponding 10 mM stock solutions. Working solutions for tested compounds (25 μM and 250 μM concentrations) were prepared before the assay in DMSO.
1.5.2. Microplate Ames mutagenicity assay protocol
Prior to the experiment, Salmonella Typhimurium was cultured overnight (NB-2 liq-uid medium in the presence of 25 μg/mL ampicillin). At the day of the experiment, fresh dilutions of the tested compounds (25 μM and 250 μM), reference compound (methylse-leninic acid) and standard mutagen (4-nitroquinoline-N-oxide at 2.5 μM and 12.5 μM) in DMSO were prepared. The positive control selected for the mutagenicity assays was NQNO, which causes point mutations at the genome. Specifically, it promotes G:C → A:T transitions in Salmonella Typhimurium TA-100 strain and in the other bacteria such as Vib-rio harveyi and Escherichia coli.
The mutagenic potential of the tested derivatives was evaluated by the incubation of the abovementioned bacteria (deprived of the ability to synthesize the histidine) with spe-cific concentrations of the tested compounds (for 90 min in the exposure medium), con-taining a limited amount of histidine (enough to provide approximately 2-3 cell divisions).
The occurrence of reversion events to histidine prototrophy was observed through the bacterial growth in the indicator medium without histidine after 48 h of incubation in temperature of 37° C [45]. The final compound and the mutagenic agent concentrations in each single well of a 384 well plate were 1 μM and 10 μM for the compounds; and 0.1 μM and 0.5 μM for the mutagen. Lastly, both a manual count and a microplate reader were used to obtain the results. The medium control baseline (MCB) was estimated as the mean number of revertants in the medium control plus one standard deviation. Each fold in-crease bigger than two times the baseline level ≥ 2.0 was considered as a mutagen alert.

[3] = Experimental aqueous solubility (UV spectrophotometry of saturated solutions); assay type: physicochemical; settings: water (saturated solution), water, thermodynamic from solid
Description: Experimental aqueous solubility was determined following a previously described procedure. Briefly, calibration curves were obtained by means of UV spectrometry for each compound, and their respective linear equations were obtained. Afterwards, saturated solutions of each compound were obtained, and they were diluted until the concentration fell within the calibration range, thus enabling the correct concentration interpolation. […] A detailed description of this process can be found in Supplementary Materials.
The aqueous solubility of the tested organic Se compounds was experimentally determined following a previously described procedure. The chosen assay used UV spectrophotometry to estimate the concentration of the saturated solution with known dilutions of the tested compound at room temperature (20° C) after 24 h. The concentrations of the solutions were used to obtain the interpolation of the measured UV absorbance of the saturated solution dilution from the calibration curve drawn using solutions previously prepared in methanol/water mixtures. […]
1.2. Determination of the aqueous solubility
1.2.1. Preparation of the saturated solutions of tested compounds
The saturated solutions (2 mL) of the tested Se-compounds in water were prepared at H2O boiling point in small glass vials. Later, vials were covered to avoid evaporation and all solutions were left 1 day at 20° C, after when every solution was filtered. Finally, the concentration of the Se-compounds was determined through UV spectrophotometric measurements. To estimate correctly the concentration, calibration curves with known concentrations were prepared, and the saturated solutions were diluted till reaching a point within the range of the respective calibration curve.
1.2.2. Preparation of the calibration curve stock solutions for UV spectrometry The stock solutions of 10 selenoesters (EDA-26, EDA-71, EDA-73, EDA-74, EDA-93, […]
were prepared in methanol (99% purity) at a 1 g/L concentration. Additionally, calibration solutions in the range from 0.0005 to 0.02 [g/L] were prepared for each Se-compound and their UV absorbance was determined to draw the corresponding calibration curve.
1.2.3. Sample preparation of saturated filtrates for UV spectrometry
The 100-fold diluted solutions of the saturated filtrates of the Se-compounds were prepared in the anhydrous methanol (99% purity), by addition of 70 μL of the correspond-ing methanol stock solution over anhydrous methanol till filling a 7 mL final volume. Af-terwards, the absorption of abovementioned solutions was determined. Finally, the solu-tions were diluted with 99% methanol from 1 to 160 times, in function of the compound.
The aim of this procedure was to determine the concentration of the Se-compounds […]
through the controlled dilution of the solution with unknown concentration till its UV absorbance fell within the range of the calibration solutions.
1.2.4. Solubility estimation
For each compound, the calibration curve was calculated through the UV absorbance measurements and the linear equation of the linear part of the curve was calculated. The absorbance of the dilution was then interpolated in this range, finding its concentration.
To determine the solubility, this concentration was multiplied by the dilution factor, which was specific for each derivative. This action enabled the estimation of the in vitro solubility of the tested derivatives in saturated solutions. All the solubility values were the average value obtained from the 3 independent measurements.
(§1) 1.3. PAMPA test: membrane permeability evaluation.
(§2) The passive transport and the membrane absorption of 5 selected selenocompounds (EDA-58, EDA-71, EDA-119, EDA-122, EDA-A6) were evaluated in the in vitro Parallel Artificial Membrane Permeability Assay (PAMPA). The protocol of the permeability assay was similar to the ones previously described.
1.3.1. Stock solutions and sample preparation for PAMPA test […]

[4] = PAMPA membrane permeability test (capillary electrophoresis); assay type: in vitro ADME; settings: for Papp at 5 h, 50 µM: 50 μM in PBS pH 7.4, 5 h, room temperature, read-out: In Vitro Permeability
Description: The passive transport and membrane absorption of 5 selected selenocompounds (EDA-58, EDA-71, EDA-119, EDA-122, and EDA-A6) were evaluated with the in vitro parallel artificial membrane permeability assay (PAMPA). This PAMPA assay could provide better predictability and membrane permeability correlations compared to the data obtained for human absorption in the Caco-2 cell line. The Precoated PAMPA Plate System Gentest™ (Corning, Bradford, MA, USA) was used to perform the permeability assay for the 5 selected Se compounds. The protocol of the permeability assay was similar to the previously described ones and is detailed in the Supplementary Materials.
Five selenocompounds (EDA-58, EDA-71, EDA-119, EDA-122, and EDA-A6) were evaluated with the PAMPA in vitro assay using the CE technique.
[formula] Scheme 1 Calculation of the in vitro permeability (cm/s). A (filter area) cm^2 = 0.3; VD (donor well volume) mL = 0.3; VA (acceptor well volume) mL = 0.2; t (incubation time) seconds = 18,000; CA(t) (compound concentration in acceptor well at time t); CD(t) (compound concentration in donor well at time t). […]
as §1, §2
1.3.1. Stock solutions and sample preparation for PAMPA test
Working solutions of the tested compounds at the concentration of the 50 μM in the phosphate saline buffer (PBS, pH 7.4) were prepared from the stocks in the pure dimethyl sulfoxide (DMSO) and stored at -20° C. Moreover, to draw the precise calibration curves for each tested (EDA-58, EDA-71, EDA-119, EDA-122, EDA-A6) and reference com- […]
The Precoated PAMPA Plate System Gentest™ (Corning, Bradford, MA, USA) was used to perform permeability assay for the 5 selected Se-compounds. The essential part of […]
solvents. PAMPA Plate System was brought to room temperature 30 min before use.
The 96-well filter plate precoated with lipids was used as a permeation acceptor, whereas the 96-well receiver plate acted as the permeation donor plate. Therefore, the compound solutions were added to the wells (300 μL/well) of the receiver plate and PBS was added to wells (200 μL/well) of the precoated filter plate.
Then, the filter plate was coupled with the receiver plate and both were incubated at room temperature for five hours without agitation. […] Fi-nally, the permeability coefficients (Pe, [cm/s]) of the tested compounds were estimated using the formula provided by the PAMPA Plate System manufacturer.
1.3.3. Capillary electrophoresis (CE) analytical method […]
were calculated in both the donor and acceptor compartments using the capillary electro-

Row | Structure (SMILES) | permeability [1] [%] | Fold Increase over Baseline ([2]; 1 µM) | MI (mutagenic index) ([2]; 1 µM) | B (binomial B value) ([2]; 1 µM) | Fold Increase over Baseline ([2]; 10 µM) | MI (mutagenic index) ([2]; 10 µM) | B (binomial B value) ([2]; 10 µM) | also measured
1 | C[Se+](C)C [cationic trimethylselenonium, trimethylselenonium] | 3.0 | – | – | – | – | – | – | –
2 | N#C[SeH] [anionic selenocyanate, selenocyanate] | 3.8 | – | – | – | – | – | – | –
3 | N[C@@H](C[Se][Se]C[C@H](N)C(=O)O)C(=O)O [selenocystine] | 3.1 | – | – | – | – | – | – | –
4 | COC(=O)C[Se]C(=O)c1ccccc1Cl [EDA-46, methyl 2-((2-chlorobenzoyl)selanyl)acetate] | – | 1.65 | 1.56 | 1.00 | 1.00 | 0.94 | 0.88 | –
5 | O=[Se](O)O [selenite] | 3.4 | – | – | – | – | – | – | –
6 | NC(=O)C[Se]C(=O)c1ccccc1 [EDA-117, Se-carbamoylmethyl benzoselenoate] | – | 0.49 | 0.66 | 0.36 | 0.42 | 0.57 | 0.18 | solubility at 24 h ([3]; 20 °C, logSm calculated based on solubility Sm (mol/L), read-out: Experimental Aqueous Solubility logSm (converted)): 4.27 mM; solubility at 24 h ([3]; room temperature (20° C), after 24 h, average of 3, read-out: Experimental Aqueous Solubility): 1030 µg/mL
7 | C[Se]C[C@H](N)C(=O)O [methylselenocysteine] | 17.2 | – | – | – | – | – | – | –
8 | CCn1cc(C(=O)O)c(=O)c2cc(F)c(N3CCNCC3)cc21 [Norfloxacin, norfloxacin, reference compound] | – | – | – | – | – | – | – | Papp at 5 h, 50 µM [4]: 0.0949 ×10⁻⁶ cm/s
9 | C[Se](=O)O [MetSeAc, methylseleninic acid, reference compound] | – | 0.75 | 0.90 | 0.37 | 0.74 | 0.96 | 0.47 | –
10 | Cn1c(=O)c2c(ncn2C)n(C)c1=O [Caffeine, caffeine, reference compound] | – | – | – | – | – | – | – | Papp at 5 h, 50 µM [4]: 3.42 ×10⁻⁶ cm/s; % Perm. (percentage that crossed from the donor well to the acceptor well) ([4]; 5 h): 6.05%
11 | COC(=O)C[Se]C(=O)Cc1ccccc1 [EDA-56, methyl 2-((2-phenylacetyl)selanyl)acetate] | – | 0.93 | 1.46 | 0.88 | 0.90 | 0.85 | 0.75 | –
12 | COC(=O)C[Se]C(=O)c1ccccc1 [EDA-53, methyl 2-(benzoylselanyl)acetate] | – | 1.10 | 1.82 | 1.00 | 1.04 | 1.72 | 0.98 | mutagenicity conclusion in Ames test ([2]; TA100, 1 and 10 µM): non-mutagenic
13 | N[C@@H](CC[Se]CC[C@H](N)C(=O)O)C(=O)O [L-selenohomolanthionine] | 2.5 | – | – | – | – | – | – | –
14 | C[Se]C1O[C@H](CO)[C@H](O)[C@H](O)[C@H]1NC(C)=O (some centres unmarked) [Se-methylseleno-N-acetylgalactosamine] | 2.9 | – | – | – | – | – | – | –
15 | C[Se]CC[C@H](N)C(=O)O [selenomethionine] | 12.4 | – | – | – | – | – | – | –
16 | COc1cccc2c1C(=O)c1c(O)c3c(c(O)c1C2=O)C[C@@](O)(C(=O)CO)C[C@@H]3O[C@H]1C[C@H](N)[C@H](O)[C@H](C)O1 [DOXO, doxorubicin, reference compound] | – | 1.31 | 1.64 | 1.00 | 0.77 | 0.95 | 0.46 | –
